Measurements published in US8980586B2, “Compound and method for producing same” (The Ritsumeikan Trust, priority 2011, dated 2015).
Values after ≈ are worked out from the molar mass of the structure shown.

What was measured:
edible oysters = conditions: cited from earlier work
water fleas = conditions: cited from earlier work
green algae = conditions: cited from earlier work
Saprolegnia parasitica = assay: Antimicrobial activity against eukaryotic microorganisms, 96-well microplate (MIC); type: cell-based; conditions: GY medium, 18° C., 24 hours
Description: (§1) The activity against eukaryotic microorganisms was measured with a 96-well microplate in the following manner. Compound (I-1), (I0-B), (I0-C), (I0-D), or (I-2) was suspended in 8% methanol water to prepare a sample suspension having a concentration of 4000, 2000, 1000, 500, 250, 125, 62.5, 32, 16, 8, or 4 μg/mL. Pyceze was diluted with water to prepare Pyceze aqueous solutions having the above concentrations. 50 μl of each of the sample solutions having the above concentrations, 50 μl of sterilized 4-fold concentrated liquid medium, and 100 μl of spore suspension or bacterial suspension of the test organisms prepared beforehand were poured in each well of the 96-well microplate. The experiments were performed in duplicate. […] The test organisms and the culture conditions were as follows.
Saprolegnia parasitica: GY medium (glucose: 1%, yeast extract: 0.25%, pH: 6.5), 18° C., 24 hours;

Phoma sp. = assay: as above; type: cell-based; conditions: YPD medium, 30° C., 30 hours
Description: as §1
Phoma sp.: YPD medium (yeast extract: 1%, peptone: 2%, glucose: 2%, pH: 6.5), 30° C., 30 hours; and […]

Bacillus subtilis = assay: Activity against prokaryotic microorganisms, paper disc method on agar plate; type: cell-based; conditions: LB agar, 37° C. overnight, concentration of sample solution
Description: (§2) The activity against prokaryotic microorganisms was measured by the paper disc method on an agar plate medium into which test organisms were kneaded. Staphylococcus aureus, Bacillus subtilis, or Escherichia coli was inoculated in 3 mL of sterilized LB medium (glucose: 0.5%, polypeptone: 1%, yeast extract: 0.5%, NaCl: 0.5%, pH: 7.2) in a test tube, and cultured at 37° C. overnight. The pre-culture solution (1%) was inoculated in a sterilized LB agar medium (agar: 1.5%) to prepare an agar assay plate. Compound (I-1) or (I-2) was dissolved in methanol to prepare a sample solution having a concentration of 1000, 500, 250, 125, 62.5, 32, 16, 8, 4, 2, or 1 μg/mL. The sample solution was infiltrated into a paper disc (ADVANTEC, diameter: 8 mm, thick), followed by air-drying. The paper disc was placed on the agar assay plate, and cultured at 37° C. overnight.

Escherichia coli = assay: as above; type: cell-based; conditions: LB agar, 37° C. overnight
Description: as §2

Staphylococcus aureus = assay: as above; type: cell-based; conditions: LB agar, 37° C. overnight, concentration of sample solution
Description: as §2

[1] = tested on: water flea (Daphnia pulex); assay: Water flea swimming ability inhibitory activity test; type: in vivo; conditions: 24 hours incubation, 20° C.; probit method
Description: The number of water fleas was adjusted so that each 10 mL of aerated water contained 5 fleas. The water fleas were all 24 hours old after birth or younger. The aerated water was prepared by aerating tap water, which had been filtered by a water cleaner, for at least 24 hours. A sample solution obtained by dissolving Compound (I-1) or (I-2) in methanol, or a Pyceze aqueous solution obtained by diluting Pyceze with water, was added to the water flea breeding water under stirring so that the final concentration of the sample or Pyceze became 100, 10, 1, 0.1, or 0.01 μg/mL. After incubation for 24 hours (20° C., 17 μmol photons/m^2/s, Light:Dark=16:8), the number of water fleas swimming in the breeding water was counted. The water fleas were divided into multiple groups, each consisting of 5 fleas. Using 2 groups each, an experiment was performed with the test liquids having the aforementioned different final concentrations. From the obtained results, IC50 values were calculated according to the probit method using SPSS statistical software.

[2] = Solubility (physicochemical properties); conditions: for Solubility in methanol, dimethyl sulfoxide (DMSO), and chloroform: organic solvents

| Structure (SMILES) | EC50 (toxicity) in edible oysters (edible oysters) [mg/L] | EC50 (toxicity) in water fleas (water fleas) [mg/L] | EC50 (toxicity) in green algae (green algae) [mg/L] | minimum inhibitory concentration (MIC) with respect to Saprolegnia parasitica (Saprolegnia parasitica) [mg/L] | MIC with respect to Phoma sp. (Phoma sp.) [mg/L] | minimum inhibitory concentration with respect to Bacillus subtilis (Bacillus subtilis) [mg/L] | inhibition ring formation for Escherichia coli (Escherichia coli) | minimum inhibitory concentration with respect to Staphylococcus aureus (Staphylococcus aureus) [mg/L] | 50% swimming ability inhibitory concentration with respect to water flea (Daphnia pulex) [1] [µg/mL] | Solubility in methanol, dimethyl sulfoxide (DMSO), and chloroform [2] | Solubility in water [2] |
| --- | --- | --- | --- | --- | --- | --- | --- | --- | --- | --- | --- |
| O=[N+]([O-])C(Br)(CO)CO [bronopol] | 0.77 (≈ 3.85 µM) | 1.4 (≈ 7 µM) | 0.0537 (≈ 0.269 µM) |  |  |  |  |  |  |  |  |
| CC1OC(OC2C(O)CC(c3ccc4c(c3O)C(=O)C3=C(C4=O)C4(O)C(=O)CC(C)(OC5C=CC(=O)C(C)O5)CC4(O)C=C3)OC2C)C=CC1=O (centres unmarked) [Compound I-1] |  |  |  | 0.0039 | 500 | 62.5 | an inhibition ring was not observed | 31.2 | 2.58 |  |  |
| CC1OC(OC2CCC(OC3C(O)CC(c4ccc5c(c4O)C(=O)C4=C(C5=O)C5(O)C(=O)CC(C)(OC6C=CC(=O)C(C)O6)CC5(O)C=C4)OC3C)OC2C)C=CC1=O (centres unmarked) [Compound I0-E] |  |  |  |  |  |  |  |  |  | Soluble | Slightly soluble |
| CC1OC(OC2C(O)CC(c3ccc4c(c3O)C(=O)C3=C(C4=O)C4(O)C(=O)CC(C)(OC5C=CC(=O)C(C)O5)CC4(O)C=C3)OC2C)C=CC1=O (centres unmarked) [Compound I0-A] |  |  |  |  |  |  |  |  |  | Soluble | Slightly soluble |
| CC1OC(OC2CCC(OC3C(O)CC(c4ccc5c(c4O)C(=O)C4=C(C5=O)C5(O)C(=O)CC(C)(OC6C=CC(=O)C(C)O6)CC5(O)C=C4)OC3C)OC2C)C=CC1=O (centres unmarked) [Compound I-2] |  |  |  | 0.0078 | 500 | 8.0 | an inhibition ring was not observed | 16.0 | 4.48 |  |  |
| CC1OC(OC2CCC(OC3C(O)CC(c4ccc5c(c4O)C(=O)C4=C(C5=O)C5(O)C(=O)CC(C)(OC6CCC(=O)C(C)O6)CC5(O)C=C4)OC3C)OC2C)C=CC1=O (centres unmarked) [Compound I0-D] |  |  |  | 1 | 500 | 62.5 | an inhibition ring was not observed | 62.5 |  | Soluble | Slightly soluble |
